Experimental data as given in patent US20120003308A1, “Pharmaceutical Composition Comprising Aliskiren” (priority 2009, published 2012).

Test: Bioequivalence study of fixed combination versus free combination, single dose, crossover
Parameters: species or system human
Conditions: in vivo
Protocol: Pharmacokinetic measurements were performed on blood collected from each subject. […] The PK parameters were determined in plasma, using non-compartmental methods.

SMILES | intra-subject coefficient of variation (CV) for AUC0-inf of aliskiren [%] | intra-subject coefficient of variation (CV) for AUC0-tlast of aliskiren [%] | intra-subject coefficient of variation (CV) for Cmax of aliskiren [%] | intra-subject CV for AUC0-flast of valsartan [%] | intra-subject CV for AUC0-inf of valsartan [%] | intra-subject CV for Cmax of valsartan [%]
COCCCOc1cc(C[C@@H](C[C@H](N)[C@@H](O)C[C@H](C(=O)NCC(C)(C)C(N)=O)C(C)C)C(C)C)ccc1OC [Aliskiren, 2(S),4(S),5(S),7(S)—N-(3-amino-2,2-dimethyl-3-oxopropyl)-2,7-di(1-methylethyl)-4-hydroxy-5-amino-8-[4-methoxy-3-(3-methoxy-propoxy)phenyl]-octanamide] | 33.19 | 33.98 | 51.90 | – | – | –
CCCCC(=O)N(Cc1ccc(-c2ccccc2-c2nnn[nH]2)cc1)[C@H](C(=O)O)C(C)C [Valsartan] | – | – | – | 28.56 | 28.33 | 40.37
